Test results as given in US7041698B2, “Hepatitis C virus inhibitors” (Bristol-Myers Squibb Company, priority 2002, dated 2006).
Where two headings read alike, the source gives them in different places.

Test system: HCV replicon in Huh7 cells
Assay: HCV replicon cell-based assay
Set-up: species or system HCV strain 1B
Conditions: Hepatitis C virus
Method in brief: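 Huh7 cells carrying a genotype 1b subgenomic replicon (NS3-NS5B, neo) treated 4 days at 37° C with compound (0.5% DMSO final). NS3 protease activity read in lysates with 10 μM FRET peptide (340/490 nm, kinetic), giving EC50. Confirmed by Taqman qRT-PCR of HCV RNA and a Renilla luciferase replicon.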

## C=CC1C[C@]1(NC(=O)[C@@H]1C[C@@H](OC(=O)Nc2ccccc2-c2ccccc2)CN1C(=O)[C@@H](NC(=O)OC(C)(C)C)C(C)(C)C)C(=O)NS(=O)(=O)C1CC1 (stereo partly drawn) [Compound 8, BocNH-P3(t-BuGly)-P2(Hyp(O—CO(NH-biphen-2-yl)))-P1(1R,2S VinylAcca)—CONHSO2Cyclopropane]
Huh-7, 96 h, HCV replicon, 4 days, read-out: EC50 range
  EC50: 100 to 1000 nM
Huh-7, HCV replicon, read-out: EC50 value in the replicon assay
  EC50: 284 nM
